According to patent publication US6894061B2, “Substituted dihydrophenanthridinesulfonamides” (Wyeth, priority 2002, dated 2005):

Columns and labels:
creatine kinase = experiment: Creatine kinase (CK) test procedure in Ad5-wt-ERα infected HAECT-1 cells; format: cell-based, human; conditions: Homo sapiens, HAECT1, Ad5-wt-ERα infected HAECT-1 cells; for EC50: read-out: Creatin Kinase EC50; for Emax / Emax at 10 µM: read-out: Creatin Kinase Efficacy (%)
Description: (§1) After four hours, cells were washed with EBM-BSA and incubated overnight in the same medium. Following overnight incubation, cells were washed with EBM-BSA and infected for 2 hours with 6 mL of a 1:10 dilution of Ad5-3x(NFκB).Luc virus (Adenovirus luciferase expression vector driven by 3 repeats of the MHC NFκb site 5′ to the thymidine kinase promoter) in EBM-BSA. After two hours, cells were washed and incubated at 34° C. for 1 hour. […] Control (no ER infection) cells were processed as above without Ad5-wt-hERα virus infection.
(§2) ERα infected HAECT-1 cells or control cells were thawed, diluted 42× in warm EBM-BSA, plated into 96-well plates at 0.1 mL/well and incubated for 4 hours at 34° C. Test compounds were added to the cells as 2× stocks in EBM-BSA containing 2 ng/mL IL-1β (R&D Systems) and the 96-well plates were returned to the incubator (34° C.). After 15-20 hours, 100 μL aliquots of media were removed from the cells and assayed for IL-6 content using a BioSource human IL-6 ELISA Kit. Cells were subsequently washed with 300 μL of Dulbecco's phosphate buffered saline and lysed in 50 μL of Cell Culture Lysis Reagent (Promega). Luciferase was determined on a Wallac Victor^2 Luminometer (Gaithersburg, Md.) using 10 μL of lysate and mixing with 100 μL of Promega Luciferase Assay reagent. Creatine kinase was determined from the rate of increase in A340 following addition of 100 μL of CK assay reagent (Sigma, cat. No 47-10) to the remainder of the cell lysate.
(§3) For IC50 and EC50 calculations, mean IL-6, luciferase or CK values versus log10 of the compound concentration were fitted to a four parameter logistic equation. The IC50/EC50 value, ‘Hill slope’, upper and lower limits of the curve were iteratively estimated.

ER/NF-κB = ER/NF-κB luciferase reporter in Ad5-wt-ERα infected HAECT-1 cells; format: cell-based, human; conditions: Homo sapiens, HAECT1, IL-1β; for Emax: read-out: ER/NFκB Efficacy (%)*; for IC50: read-out: ER/NFκB IC50
Description: as §1, §2, §3

Row | Compound | EC50 (creatine kinase) | Emax (creatine kinase) | melting point | Emax (ER/NF-κB) | IC50 (ER/NF-κB) | Emax at 10 µM (creatine kinase)
1 | C[C@H]1c2ccccc2-c2ccccc2N1S(=O)(=O)c1ccc(O)cc1 (single isomer, unassigned) [Example 2] | 420 nM | 28% | 176 to 178 °C | 103% | 40 nM | 
2 | C[C@@H]1c2ccccc2-c2ccccc2N1S(=O)(=O)c1ccc(O)cc1 (single isomer, unassigned) [Example 3] |  |  | 181 to 183 °C | 97% | 1510 nM | < 35%
3 | O=S(=O)(c1ccc(O)cc1)N1c2ccccc2-c2ccccc2[C@H]1c1ccccc1 (single isomer, unassigned) [Example 10] |  |  | 208 to 210 °C | 95% | 61 nM | < 35%
4 | O=S(=O)(c1ccc(O)cc1)N1c2ccccc2-c2ccccc2[C@@H]1c1ccccc1 (single isomer, unassigned) [Example 11] | 117 nM | 37% | 210 to 212 °C | 115% | 168 nM | 
5 | CC1c2ccccc2-c2ccccc2N1S(=O)(=O)c1ccc(O)cc1 (stereo not drawn) [Example 1, 4-[(6-Methylphenanthridin-5(6H)-yl)sulfonyl]phenol] | 1000 nM | 39% | 196 to 198 °C | 94% | 422 nM | 
6 | CC1c2ccccc2-c2cc(Br)ccc2N1S(=O)(=O)c1ccc(O)cc1 (stereo not drawn) [Example 4, 4-[(2-Bromo-6-methylphenanthridin-5(6H)-yl)sulfonyl]phenol] | 48 nM | 23% | 201 to 203 °C | 101% | 54 nM | 
7 | Cc1cc(S(=O)(=O)N2c3ccccc3-c3ccccc3C2C)ccc1O (stereo not drawn) [Example 5, 2-Methyl-4-[(6-methylphenanthridin-5(6H)-yl)sulfonyl]phenol] |  |  | 186 to 188 °C | 102% | 433 nM | < 35%
8 | Cc1cc(S(=O)(=O)N2c3ccc(Br)cc3-c3ccccc3C2C)ccc1O (stereo not drawn) [Example 6, 4-[(2-Bromo-6-methylphenanthridin-5(6H)-yl)sulfonyl]-2-methylphenol] |  |  | 193 to 195 °C | 92% | 474 nM | < 35%
9 | CCCCC1c2ccccc2-c2ccccc2N1S(=O)(=O)c1ccc(O)cc1 (stereo not drawn) [Example 7, 4-[(6-Butylphenanthridin-5(6H)-yl)sulfonyl]phenol] |  |  | 149 to 151 °C | 7% | 470 nM | < 35%
10 | CCCCC1c2ccccc2-c2cc(Br)ccc2N1S(=O)(=O)c1ccc(O)cc1 (stereo not drawn) [Example 8, 4-[(2-Bromo-6-butylphenanthridin-5(6H)-yl)sulfonyl]phenol] |  |  | 178 to 180 °C | 89% | 672 nM | < 35%
11 | O=S(=O)(c1ccc(O)cc1)N1c2ccccc2-c2ccccc2C1c1ccccc1 (stereo not drawn) [Example 9, 4-[(6-Phenylphenanthridin-5(6H)-yl)sulfonyl]phenol] | 455 nM | 26% | 217 to 220 °C | 89% | 125 nM | 
12 | O=S(=O)(c1ccc(O)cc1)N1c2ccc(Br)cc2-c2ccccc2C1c1ccccc1 (stereo not drawn) [Example 12, 4-[(2-Bromo-6-phenylphenanthridin-5(6H)-yl)sulfonyl]phenol] |  |  | 262 to 265 °C | 93% | 682 nM | < 35%
13 | O=S(=O)(c1ccc(O)c(Br)c1)N1c2ccc(Br)cc2-c2ccccc2C1c1ccccc1 (stereo not drawn) [Example 13, 2-Bromo-4-[(2-bromo-6-phenylphenanthridin-5(6H)-yl)sulfonyl]phenol] |  |  | 237 to 239 °C |  | > 10000 nM | < 35%
14 | CC(C)(C)C1c2ccccc2-c2ccccc2N1S(=O)(=O)c1ccc(O)cc1 (stereo not drawn) [Example 14, 4-[(6-tert-Butylphenanthridin-5(6H)-yl)sulfonyl]phenol] | 757 nM | 50% | 192 to 194 °C | 105% | 108 nM | 
15 | CC(C)(C)[C@@H]1c2ccccc2-c2ccccc2N1S(=O)(=O)c1ccc(O)cc1 [Example 15, 4-{[(R)-6-tert-Butylphenanthridin-5(6H)-yl]sulfonyl}phenol] |  |  | 187 to 189 °C | 99% | 16 nM | < 35%
16 | CC(C)(C)[C@H]1c2ccccc2-c2ccccc2N1S(=O)(=O)c1ccc(O)cc1 [Example 16, 4-{[(S)-6-tert-Butylphenanthridin-5(6H)-yl]sulfonyl}phenol] | 3160 nM | 15% | 187 to 189 °C | 89% | 2280 nM | 
17 | CC(C)(C)C1c2ccccc2-c2cc(Br)ccc2N1S(=O)(=O)c1ccc(O)cc1 (stereo not drawn) [Example 17, 4-[(2-Bromo-6-tert-butylphenanthridin-5(6H)-yl)sulfonyl]phenol] |  |  | 245 to 247 °C | 76% | 58 nM | < 35%
18 | CC1c2ccccc2-c2ccccc2N1S(=O)(=O)c1ccc(O)c(O)c1 (stereo not drawn) [Example 23, 4-[(6-Methylphenanthridin-5(6H)-yl)sulfonyl]benzene-1,2-diol] |  |  | 163 to 165 °C |  | > 10000 nM | < 35%
19 | CC1c2ccccc2-c2ccccc2N1S(=O)(=O)c1ccc(O)c(CO)c1 (stereo not drawn) [Example 26, 2-(Hydroxymethyl)-4-[(6-methylphenanthridin-5(6H)-yl)sulfonyl]phenol] |  |  | 182 to 184 °C |  | > 10000 nM | < 35%
20 | CCC1c2ccccc2-c2cc(-c3cccc(O)c3)ccc2N1S(=O)(=O)c1ccc(O)cc1 (stereo not drawn) [Example 30, 3-{6-Ethyl-5-[(4-hydroxyphenyl)sulfonyl]-5,6-dihydrophenanthridine-2-yl}phenol] |  |  | 105 °C | 76% | 53 nM | < 35%
21 | CCC1c2ccccc2-c2cc(-c3cccc4c3oc3ccccc34)ccc2N1S(=O)(=O)c1ccc(O)cc1 (stereo not drawn) [Example 31, 4-[(2-Dibenzo[b,d]furan-4-yl-6-ethylphenanthridin-5(6H)-yl)sulfonyl]phenol] |  |  | 218 to 220 °C | 108% | 254 nM | < 35%
22 | CC1c2cc(F)ccc2-c2ccccc2N1S(=O)(=O)c1ccc(O)cc1 (stereo not drawn) [Example 32, 4-[(8-Fluoro-6-methylphenanthridin-5(6H)-yl)sulfonyl]phenol] | 302 nM | 26% | 188 °C | 96% | 96 nM | 
23 | Cc1cc(S(=O)(=O)N2c3ccccc3-c3ccc(F)cc3C2C)ccc1O (stereo not drawn) [Example 35, 4-[(8-Fluoro-6-methylphenanthridin-5(6H)-yl)sulfonyl]-2-methylphenol] |  |  | 196 °C | 94% | 707 nM | < 35%
24 | CC1c2ccc(O)cc2-c2ccccc2N1S(=O)(=O)c1ccc(O)cc1 (stereo not drawn) [Example 36, 5-[(4-Hydroxyphenyl)sulfonyl]-6-methyl-5,6-dihydrophenanthridin-9-ol] |  |  | 212 °C | 60% | 690 nM | < 35%
25 | Cc1cc(S(=O)(=O)N2c3ccccc3-c3cccc(O)c3C2C)ccc1O (stereo not drawn) [Example 38, 5-[(4-Hydroxy-3-methylphenyl)sulfonyl]-6-methyl-5,6-dihydrophenanthridin-7-ol] |  |  | 258 °C |  | > 10000 nM | < 35%
26 | CCC1c2cc(F)ccc2-c2ccccc2N1S(=O)(=O)c1ccc(O)cc1 (stereo not drawn) [Example 40, 4-[(6-Ethyl-8-fluorophenanthridin-5(6H)-yl)sulfonyl]phenol] |  |  | 151 °C | 99% | 27 nM | < 35%
27 | CCC1c2cc(F)ccc2-c2ccccc2N1S(=O)(=O)c1ccc(O)c(C)c1 (stereo not drawn) [Example 41, 4-[(6-Ethyl-8-fluorophenanthridin-5(6H)-yl)sulfonyl]-2-methylphenol] | 429 nM | 24% | 181 °C | 75% | 815 nM | 
28 | CCC1c2c(C)cccc2-c2ccccc2N1S(=O)(=O)c1ccc(O)cc1 (stereo not drawn) [Example 42, 4-[(6-ethyl-7-methylphenanthridin-5(6H)-yl)sulfonyl]phenol] |  |  | 167 to 169 °C | 99% | 83 nM | < 35%
